# Experimental data reported in US7989482B2, “Indoline anti-cancer agents” (Joyant Pharmaceuticals, Inc., priority 2008, dated 2011).
# Where two headings read alike, the source gives them in different places.
# Experiments:
# U937 cells = experiment: Cell viability assay (CELL-TITER-GLO) in U937 cells; assay type: cell-based; conditions: U937 cells, 48 hour treatment, cell viability, read-out: IC50 (μM) U937
# Description: (§1) Cell viability assays were run using standard protocols known to those of skill in art. Cells were plated in 96 well plates at the density of 3,000-10,000 cells per well. Twenty four hours later, cells were treated with increasing concentration of test compounds (1 nM to 1 μM). After another 48 hour, cell survival was measured using CELL-TITER-GLO® reagent (Promega) following the protocol provided by the manufacture. The IC50 value was determined as the concentration of test compound that kills 50% of the cell population.
# (§2) Cell viability data generated according to the protocol described in Example 97 was generated for representative compounds in A2058 and U937 cells.
# A2058 cells = experiment: Cell viability assay (CELL-TITER-GLO) in A2058 cells; assay type: cell-based; conditions: A2058 cells, 48 hour treatment, cell viability, read-out: IC50 (μM) A2058
# Description: as §1, §2
SMILES,"IC50 (U937 cells; Homo sapiens, U-937, 48 h) [µM]","IC50 (A2058 cells; Homo sapiens, A2058, 48 h) [µM]",further results
COC(=O)[C@H]1COC(c2nc3oc2C24c5ccccc5N[C@H]2Oc2ccc(cc24)C[C@H](NC(=O)[C@@H](O)C(C)C)C(=O)N[C@H]3C(C)C)=N1 (stereo partly shown) [Example 45],0.185,0.329,–
CCC(O)(CC)C(=O)N[C@H]1Cc2ccc3c(c2)C2(C4=C(c5nc(C(=O)OC)co5)N=C(O4)[C@H](C(C)C)NC1=O)c1ccccc1N[C@H]2O3 (stereo partly shown) [Example 47],0.019,0.077,–
COC(=O)c1coc(-c2nc3oc2C24c5ccccc5N[C@H]2Oc2ccc(cc24)C[C@H](NC(=O)[C@@H](O)C(C)(C)C)C(=O)N[C@H]3C(C)C)n1 (stereo partly shown) [Example 48],0.039,0.058,–
COC(=O)c1coc(-c2nc3oc2C24c5ccccc5N[C@H]2Oc2ccc(cc24)C[C@H](NC(=O)[C@@H](O)C(C)(C)C)C(=O)N[C@H]3C(C)C)n1 (stereo partly shown) [Example 49],–,–,IC50 (U937 cells): 0.04 µM; IC50 (A2058 cells): 0.049 µM
[H][C@@]1(C(=O)N[C@H]2Cc3ccc4c(c3)C3(C5=C(c6nc(C(=O)OC)co6)N=C(O5)[C@H](C(C)C)NC2=O)c2ccccc2N[C@H]3O4)CCCO1 (stereo partly shown) [Example 50],0.04,0.075,–
COC(=O)c1coc(-c2nc3oc2C24c5ccccc5N[C@H]2Oc2ccc(cc24)C[C@H](NC(=O)C2(O)CCCCC2)C(=O)N[C@H]3C(C)C)n1 (stereo partly shown) [Example 51],0.04,0.056,–
CCC(C)(O)C(=O)N[C@H]1Cc2ccc3c(c2)C2(C4=C(c5nc(C(=O)OC)co5)N=C(O4)[C@H](C(C)C)NC1=O)c1ccccc1N[C@H]2O3 (stereo partly shown) [Example 52],0.028,0.108,–
CCC(C)(C)C(=O)N[C@H]1Cc2ccc3c(c2)C2(C4=C(c5nc(C(=O)OC)co5)N=C(O4)[C@H](C(C)C)NC1=O)c1ccccc1N[C@H]2O3 (stereo partly shown) [Example 53],0.068,0.357,–
CCCCCCc1cccc2c1N[C@H]1Oc3ccc4cc3C21c1oc(nc1-c1nc(C(=O)OC)co1)[C@H](C(C)C)NC(=O)[C@@H](NC(=O)[C@@H](O)C(C)C)C4 (stereo partly shown) [Example 54],0.063,0.164,–
CCC(O)(CC)C(=O)N[C@H]1Cc2ccc3c(c2)C2(C4=C(c5nc(C(=O)O)co5)N=C(O4)[C@H](C(C)C)NC1=O)c1ccccc1N[C@H]2O3 (stereo partly shown) [Example 55],–,–,"IC50 (U937 cells; Homo sapiens, U-937): 0.9 µM; IC50 (A2058 cells; Homo sapiens): > 1 µM"
CC(C)[C@H](O)C(=O)N[C@H]1Cc2ccc3c(c2)C2(C4=C(c5nc(C(=O)O)co5)N=C(O4)[C@H](C(C)C)NC1=O)c1ccccc1N[C@H]2O3 (stereo partly shown) [Example 56],–,–,"IC50 (U937 cells; Homo sapiens, U-937): 0.736 µM; IC50 (A2058 cells; Homo sapiens): 0.841 µM"
CNC(C(=O)N[C@H]1Cc2ccc3c(c2)C2(C4=C(c5nc(C(=O)OC)co5)N=C(O4)[C@H](C(C)C)NC1=O)c1ccccc1N[C@H]2O3)C(C)C (stereo partly shown) [Example 57],0.111,0.313,–
CNC(=O)c1coc(-c2nc3oc2C24c5ccccc5N[C@H]2Oc2ccc(cc24)C[C@H](NC(=O)[C@@H](O)C(C)C)C(=O)N[C@H]3C(C)C)n1 (stereo partly shown) [Example 58],> 1,> 1,–
CC(C)[C@H](O)C(=O)N[C@H]1Cc2ccc3c(c2)C2(C4=C(c5nc(C(=O)NC(C)(C)C)co5)N=C(O4)[C@H](C(C)C)NC1=O)c1ccccc1N[C@H]2O3 (stereo partly shown) [Example 59],0.604,0.514,–
CC(C)[C@H](O)C(=O)N[C@H]1Cc2ccc3c(c2)C2(C4=C(c5nc(C(=O)N6CCCC6)co5)N=C(O4)[C@H](C(C)C)NC1=O)c1ccccc1N[C@H]2O3 (stereo partly shown) [Example 60],0.562,0.636,–
CCCCNC(=O)c1coc(-c2nc3oc2C24c5ccccc5N[C@H]2Oc2ccc(cc24)C[C@H](NC(=O)[C@@H](O)C(C)C)C(=O)N[C@H]3C(C)C)n1 (stereo partly shown) [Example 62],0.192,0.243,–
CC(C)[C@H](O)C(=O)N[C@H]1Cc2ccc3c(c2)C2(C4=C(c5nc(C(=O)N6CCN(C)CC6)co5)N=C(O4)[C@H](C(C)C)NC1=O)c1ccccc1N[C@H]2O3 (stereo partly shown) [Example 63],–,–,"IC50 (U937 cells; Homo sapiens, U-937): 0.162 µM; IC50 (A2058 cells; Homo sapiens): 0.247 µM"
CC(C)[C@H](O)C(=O)N[C@H]1Cc2ccc3c(c2)C2(C4=C(c5nc(C(=O)NC6CCCc7ccccc76)co5)N=C(O4)[C@H](C(C)C)NC1=O)c1ccccc1N[C@H]2O3 (stereo partly shown) [Example 64],0.184,0.184,–
CC(C)[C@H](O)C(=O)N[C@H]1Cc2ccc3c(c2)C2(C4=C(c5nc(C(=O)N(C)C)co5)N=C(O4)[C@H](C(C)C)NC1=O)c1ccccc1N[C@H]2O3 (stereo partly shown) [Example 65],0.235,0.553,–
CC(C)[C@H](O)C(=O)N[C@H]1Cc2ccc3c(c2)C2(C4=C(c5nc(C(N)=O)co5)N=C(O4)[C@H](C(C)C)NC1=O)c1ccccc1N[C@H]2O3 (stereo partly shown) [Example 66],0.218,0.363,–
COC(=O)c1nc(-c2nc3oc2C24c5ccccc5N[C@H]2Oc2ccc(cc24)CC(NC(=O)[C@@H](O)C(C)C)C(=O)N[C@H]3C(C)C)oc1C (stereo partly shown) [Example 67],0.024,0.047,–

SMILES,"IC50 (U937 cells; Homo sapiens, U-937, 48 h) [µM]","IC50 (A2058 cells; Homo sapiens, A2058, 48 h) [µM]",further results
COC(=O)c1nc(-c2nc3oc2C24c5ccccc5N[C@H]2Oc2ccc(cc24)C[C@H](NC(=O)[C@@H](O)C(C)(C)C)C(=O)N[C@H]3C(C)C)oc1C (stereo partly shown) [Example 68],0.057,0.066,–
CCC(O)(CC)C(=O)N[C@H]1Cc2ccc3c(c2)C2(C4=C(c5nc(C(=O)OC)c(C)o5)N=C(O4)[C@H](C(C)C)NC1=O)c1ccccc1N[C@H]2O3 (stereo partly shown) [Example 69],0.081,0.17,–
COC(=O)c1nc(-c2nc3oc2C24c5ccccc5N[C@H]2Oc2ccc(cc24)C[C@H](NC(=O)[C@@H](O)CC(C)C)C(=O)N[C@H]3C(C)C)oc1C (stereo partly shown) [Example 70],0.065,0.08,–
COc1ccc(-c2cnc(-c3nc4oc3C35c6ccccc6N[C@H]3Oc3ccc(cc35)CC(NC(=O)[C@@H](O)C(C)C)C(=O)N[C@H]4C(C)C)o2)cc1 (stereo partly shown) [Example 71],> 1,0.639,–
CC(C)[C@H](O)C(=O)NC1Cc2ccc3c(c2)C2(C4=C(c5ncc(-c6ccccc6)o5)N=C(O4)[C@H](C(C)C)NC1=O)c1ccccc1N[C@H]2O3 (stereo partly shown) [Example 72],> 1,> 1,–
CCC(O)(CC)C(=O)N[C@H]1Cc2ccc3c(c2)C2(C4=C(c5nc(CO)co5)N=C(O4)[C@H](C(C)C)NC1=O)c1ccccc1N[C@H]2O3 (stereo partly shown) [Example 74],–,–,"IC50 (U937 cells; Homo sapiens, U-937): 0.11 µM; IC50 (A2058 cells; Homo sapiens): 0.292 µM"
CCC(O)c1coc(-c2nc3oc2C24c5ccccc5N[C@H]2Oc2ccc(cc24)C[C@H](NC(=O)[C@@H](O)C(C)C)C(=O)N[C@H]3C(C)C)n1 (stereo partly shown) [Example 75],0.229,0.226,–
COCc1coc(-c2nc3oc2C24c5ccccc5N[C@H]2Oc2ccc(cc24)C[C@H](NC(=O)[C@@H](O)C(C)C)C(=O)N[C@H]3C(C)C)n1 (stereo partly shown) [Example 76],0.127,0.114,–
CCCCCCc1oc(-c2nc3oc2C24c5ccccc5N[C@H]2Oc2ccc(cc24)C[C@H](NC(=O)[C@@H](O)C(C)C)C(=O)N[C@H]3C(C)C)nc1C(=O)OC (stereo partly shown) [Example 77],0.018,0.08,–
CC(C)[C@H](O)C(=O)N[C@H]1Cc2ccc3c(c2)C2(C4=C(c5ncco5)N=C(O4)[C@H](C(C)C)NC1=O)c1ccccc1N[C@H]2O3 (stereo partly shown) [Example 78],0.052,0.154,–
Cc1coc(-c2nc3oc2C24c5ccccc5N[C@H]2Oc2ccc(cc24)C[C@H](NC(=O)[C@@H](O)C(C)C)C(=O)N[C@H]3C(C)C)n1 (stereo partly shown) [Example 79],0.071,0.174,–
CCOC(=O)c1coc(-c2nc3oc2C24c5ccccc5N[C@H]2Oc2ccc(cc24)C[C@H](NC(=O)[C@@H](O)C(C)C)C(=O)N[C@H]3C(C)C)n1 (stereo partly shown) [Example 80],0.0013,0.021,–
CC(C)OC(=O)c1coc(-c2nc3oc2C24c5ccccc5N[C@H]2Oc2ccc(cc24)C[C@H](NC(=O)[C@@H](O)C(C)C)C(=O)N[C@H]3C(C)C)n1 (stereo partly shown) [Example 81],0.0014,0.006,–
CC(C)[C@H](O)C(=O)N[C@H]1Cc2ccc3c(c2)C2(C4=C(c5nc(C(=O)OC(C)(C)C)co5)N=C(O4)[C@H](C(C)C)NC1=O)c1ccccc1N[C@H]2O3 (stereo partly shown) [Example 82],0.066,0.126,–
CC(C)[C@H](O)C(=O)N[C@H]1Cc2ccc3c(c2)C2(C4=C(c5cnco5)N=C(O4)[C@H](C(C)C)NC1=O)c1ccccc1N[C@H]2O3 (stereo partly shown) [Example 83],0.252,0.433,–
CCC(O)(CC)C(=O)N[C@H]1Cc2ccc3c(c2)C2(C4=C(c5cnco5)N=C(O4)[C@H](C(C)C)NC1=O)c1ccccc1N[C@H]2O3 (stereo partly shown) [Example 84],0.315,0.487,–
CC(C)[C@H](O)C(=O)N[C@H]1Cc2ccc3c(c2)C2(C4=C(c5ncc[nH]5)N=C(O4)[C@H](C(C)C)NC1=O)c1ccccc1N[C@H]2O3 (stereo partly shown) [Example 85],0.234,0.337,–
CC(C)[C@H](O)C(=O)N[C@H]1Cc2ccc3c(c2)C2(C4=C(c5nc(C#N)c(N)o5)N=C(O4)[C@H](C(C)C)NC1=O)c1ccccc1N[C@H]2O3 (stereo partly shown) [Example 86],0.064,0.179,–
Cc1noc(-c2nc3oc2C24c5ccccc5N[C@H]2Oc2ccc(cc24)C[C@H](NC(=O)[C@@H](O)C(C)C)C(=O)N[C@H]3C(C)C)n1 (stereo partly shown) [Example 87],0.164,0.479,–
CCOC(=O)c1noc(-c2nc3oc2C24c5ccccc5N[C@H]2Oc2ccc(cc24)C[C@H](NC(=O)[C@@H](O)C(C)C)C(=O)N[C@H]3C(C)C)n1 (stereo partly shown) [Example 88],0.7,> 1,–
